Results as given in PubChem BioAssay AID330 (DTP/NCI, 2004).
Where “and” joins values, the source holds several entries; their conditions need not be identical. Equal entries are not always repeated. Toxic doses and inconclusive results are not listed. How the source made its calls: active means survival T/C of 150% or more; inactive means T/C below 125% in these data.

System: P388 leukemia ip, CD2F1 mice, survival T/C
Test: NCI In Vivo Anticancer Drug Screen. Data for tumor model P388 Leukemia (intraperitoneal) in CD2F1 (CDF1) mice
Details: endpoint: median survival time, higher = longer survival
How it was run: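 Mice carrying the transplanted tumor received test compound or vehicle. Survival was recorded in each group, and the value is the treated-group measurement divided by that of the vehicle-treated control group.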

[1] = dose: 60.0 mg/kg/injection, schedule: Q01DX005 (ip), vehicle: saline with Tween-80
[2] = dose: 120.0 mg/kg/injection, schedule: Q01DX005 (ip), vehicle: saline with Tween-80
[3] = dose: 60.0 mg/kg/injection, schedule: Q01DX005 (ip), vehicle: Klucel (hydroxypropylcellulose) (HPC)
[4] = dose: 120.0 mg/kg/injection, schedule: Q01DX005 (ip), vehicle: Klucel (hydroxypropylcellulose) (HPC)
[5] = dose: 240.0 mg/kg/injection, schedule: Q01DX005 (ip), vehicle: Klucel (hydroxypropylcellulose) (HPC)
[6] = dose: 100.0 mg/kg/injection, schedule: Q01DX001 (ip), vehicle: Klucel (hydroxypropylcellulose) (HPC)
[7] = dose: 200.0 mg/kg/injection, schedule: Q01DX001 (ip), vehicle: Klucel (hydroxypropylcellulose) (HPC)
[8] = dose: 400.0 mg/kg/injection, schedule: Q01DX001 (ip), vehicle: Klucel (hydroxypropylcellulose) (HPC)
[9] = dose: 25.0 mg/kg/injection, schedule: Q01DX005 (ip), vehicle: saline with Tween-80
[10] = dose: 50.0 mg/kg/injection, schedule: Q01DX005 (ip), vehicle: saline with Tween-80
[11] = dose: 100.0 mg/kg/injection, schedule: Q01DX005 (ip), vehicle: saline with Tween-80
[12] = dose: 50.0 mg/kg/injection, schedule: Q01DX009 (ip), vehicle: Klucel (hydroxypropylcellulose) (HPC)
[13] = dose: 100.0 mg/kg/injection, schedule: Q01DX009 (ip), vehicle: Klucel (hydroxypropylcellulose) (HPC)
[14] = dose: 100.0 mg/kg/injection, schedule: Q01DX009 (ip), vehicle: saline with Tween-80
[15] = dose: 200.0 mg/kg/injection, schedule: Q01DX009 (ip), vehicle: saline with Tween-80
[16] = dose: 200.0 mg/kg/injection, schedule: Q01DX005 (ip), vehicle: saline with Tween-80

Measured: T/C

O=c1c(N2CCOCC2)c(N2CCOCC2)c1=O
inactive: dose: 100.0 mg/kg/injection, schedule: Q01DX001 (ip), vehicle: saline with Tween-80 100 % of control | dose: 200.0 mg/kg/injection, schedule: Q01DX001 (ip), vehicle: saline with Tween-80 95 % of control | dose: 400.0 mg/kg/injection, schedule: Q01DX001 (ip), vehicle: saline with Tween-80 90 % of control

Cc1c(C#N)c2n(c1C)CC(=O)N2
inactive: [1] 87 % of control | [2] 95 % of control

CN(C)c1c2c(oc(=O)c1Cl)-c1ccccc1OCC2
inactive: [3] 101 % of control | [4] 103 % of control | [5] 107 % of control

Cc1ccc(S(=O)(=O)N/N=C/c2c(Cl)[nH]c3cc(C)c(O)cc23)cc1
inactive: dose: 25.0 mg/kg/injection, schedule: Q01DX001 (ip), vehicle: Klucel (hydroxypropylcellulose) (HPC) 100 % of control | dose: 50.0 mg/kg/injection, schedule: Q01DX001 (ip), vehicle: Klucel (hydroxypropylcellulose) (HPC) 105 % of control | [6] 103 % of control and 91 % of control | [7] 103 % of control | [8] 91 % of control

CCC12CCCN3CCC4(c5cccc(O)c5NC4CC1)C32 (stereo not drawn)
inactive: dose: 60.0 mg/kg/injection, schedule: Q01DX005 (ip), vehicle: saline 101 % of control | dose: 120.0 mg/kg/injection, schedule: Q01DX005 (ip), vehicle: saline 94 % of control | dose: 240.0 mg/kg/injection, schedule: Q01DX005 (ip), vehicle: saline 101 % of control

O=C(c1ccccc1)C(N=Nc1ccccc1)(c1ccccc1)c1ccccc1
inactive: [1] 101 % of control | [2] 118 % of control | dose: 240.0 mg/kg/injection, schedule: Q01DX005 (ip), vehicle: saline with Tween-80 100 % of control

CCOC(=O)c1cnc2cc3c(cc2c1Nc1cccc(C)c1)OCO3
inactive: [3] 95 % of control | [4] 99 % of control | [5] 91 % of control

COc1ccc2c3c(c4ccccc4c2c1)C(=O)OC3=O
inactive: [9] 87 % of control | [10] 87 % of control | [11] 109 % of control

Cn1c2ccccc2c2oc(CO)cc(=O)c21
inactive: [3] 95 % of control | [4] 89 % of control | [5] 91 % of control

O=C1CSC(c2c(F)cccc2Cl)N1c1ncccn1 (stereo not drawn)
inactive: [3] 109 % of control | [4] 111 % of control

Cc1cc(/C=C2/OC(=O)c3ccccc32)cc(C(C)(C)C)c1O
inactive: dose: 100.0 mg/kg/injection, schedule: Q04DX002 (ip), vehicle: saline 101 % of control | dose: 200.0 mg/kg/injection, schedule: Q04DX002 (ip), vehicle: saline 99 % of control | dose: 400.0 mg/kg/injection, schedule: Q04DX002 (ip), vehicle: saline 101 % of control

COc1cc(OC)c2c(c1)C(=O)[C@]1(C)C3(C)OC(=O)C(c4ccccc43)[C@]21C (stereo partly drawn)
inactive: [6] 102 % of control | [7] 100 % of control | [8] 105 % of control

OCCCOCCCOCCCOCCCO
inactive: dose: 100.0 mg/kg/injection, schedule: Q01DX001 (ip), vehicle: saline 101 % of control | dose: 200.0 mg/kg/injection, schedule: Q01DX001 (ip), vehicle: saline 108 % of control | dose: 400.0 mg/kg/injection, schedule: Q01DX001 (ip), vehicle: saline 101 % of control

NN1C(=O)c2cccc3cccc(c23)C1=O
inactive: dose: 3.13 mg/kg/injection, schedule: Q01DX009 (ip), vehicle: saline with Tween-80 105 % of control | dose: 6.25 mg/kg/injection, schedule: Q01DX009 (ip), vehicle: saline with Tween-80 100 % of control | dose: 12.5 mg/kg/injection, schedule: Q01DX009 (ip), vehicle: saline with Tween-80 100 % of control | dose: 25.0 mg/kg/injection, schedule: Q01DX009 (ip), vehicle: saline with Tween-80 105 % of control

O=C1C(=C2CCCC2)CC/C1=C1/SS/C(=C2/CCC(=C3CCCC3)C2=O)S1
inactive: [12] 99 % of control | [13] 101 % of control | dose: 200.0 mg/kg/injection, schedule: Q01DX009 (ip), vehicle: Klucel (hydroxypropylcellulose) (HPC) 100 % of control

CCOC(=O)c1cc2c(OC)c(OC)ccc2cc1N
inactive: dose: 12.5 mg/kg/injection, schedule: Q01DX009 (ip), vehicle: other 100 % of control | dose: 25.0 mg/kg/injection, schedule: Q01DX009 (ip), vehicle: other 103 % of control | dose: 50.0 mg/kg/injection, schedule: Q01DX009 (ip), vehicle: other 100 % of control | dose: 100.0 mg/kg/injection, schedule: Q01DX009 (ip), vehicle: other 115 % of control

Cc1ccc(NC(=O)NCc2ccncc2)cc1NC(=O)NCc1ccncc1
inactive: [12] 112 % of control | [13] 110 % of control

C/C(=N\N=N\c1ccc(C)s1)c1ccccc1
inactive: dose: 50.0 mg/kg/injection, schedule: Q01DX005 (ip), vehicle: Klucel + Tween-80 105 % of control | dose: 100.0 mg/kg/injection, schedule: Q01DX005 (ip), vehicle: Klucel + Tween-80 105 % of control | dose: 200.0 mg/kg/injection, schedule: Q01DX005 (ip), vehicle: Klucel + Tween-80 97 % of control

Oc1c(CNCc2ccc(Cl)c(Cl)c2)ccc2cccnc12
inactive: dose: 100.0 mg/kg/injection, schedule: Q04DX003 (ip), vehicle: Klucel (hydroxypropylcellulose) (HPC) 104 % of control | dose: 200.0 mg/kg/injection, schedule: Q04DX003 (ip), vehicle: Klucel (hydroxypropylcellulose) (HPC) 105 % of control | dose: 400.0 mg/kg/injection, schedule: Q04DX003 (ip), vehicle: Klucel (hydroxypropylcellulose) (HPC) 106 % of control

Cc1ccc(OCCCCBr)c(Br)c1
inactive: dose: 50.0 mg/kg/injection, schedule: Q01DX005 (ip), vehicle: Klucel (hydroxypropylcellulose) (HPC) 105 % of control | dose: 100.0 mg/kg/injection, schedule: Q01DX005 (ip), vehicle: Klucel (hydroxypropylcellulose) (HPC) 101 % of control | dose: 200.0 mg/kg/injection, schedule: Q01DX005 (ip), vehicle: Klucel (hydroxypropylcellulose) (HPC) 97 % of control

NCCCn1[nH]c(=O)c2cnccc2c1=O
inactive: dose: 50.0 mg/kg/injection, schedule: Q01DX005 (ip), vehicle: saline 103 % of control | dose: 100.0 mg/kg/injection, schedule: Q01DX005 (ip), vehicle: saline 94 % of control | dose: 200.0 mg/kg/injection, schedule: Q01DX005 (ip), vehicle: saline 101 % of control

CC(C)C1=CC2=C(CC1)C1(C)CCCC(C)(C(=O)O)C1CC2 (stereo not drawn)
inactive: [14] 100 % of control | [15] 100 % of control | dose: 400.0 mg/kg/injection, schedule: Q01DX009 (ip), vehicle: saline with Tween-80 100 % of control

[Cl][Ge]([Cl])([Cl])[c]1ccccc1
inactive: dose: 50.0 mg/kg/injection, schedule: Q01DX009 (ip), vehicle: saline 100 % of control | dose: 100.0 mg/kg/injection, schedule: Q01DX009 (ip), vehicle: saline 100 % of control

CCc1c2c(c(C)n1C)C(c1ccccc1)=NCC(=O)N2
inactive: dose: 50.0 mg/kg/injection, schedule: Q01DX009 (ip), vehicle: saline with Tween-80 91 % of control | [14] 98 % of control | [15] 98 % of control

CN(C)c1cc(N(C)C)c(N(C)C)cc1N(C)C
inactive: [10] 109 % of control | [11] 102 % of control | [16] 100 % of control

O=C1C=CC(=O)N1C(=O)NC(NC(=O)N1C(=O)C=CC1=O)c1ccc2c(c1)OCO2
inactive: [9] 102 % of control | [10] 98 % of control | [11] 95 % of control | [16] 102 % of control

Cc1cc(C)c(COCc2cc(C)c(C)cc2C)cc1C
inactive: dose: 25.0 mg/kg/injection, schedule: Q01DX009 (ip), vehicle: water 86 % of control | dose: 100.0 mg/kg/injection, schedule: Q01DX009 (ip), vehicle: water 90 % of control | dose: 200.0 mg/kg/injection, schedule: Q01DX009 (ip), vehicle: water 106 % of control | dose: 400.0 mg/kg/injection, schedule: Q01DX009 (ip), vehicle: water 104 % of control
